Tests used:
[1] = after collection, suspended in a buffer solution for extraction, cooled in ice; cited from earlier work
[2] = Stability test of NAD (recovery test of NAD added to human pooled serum); type: in vitro ADME
Procedure: NAD was added to 2250 μL of human pooled serum to make 50 μmol/L and incubated at refrigeration, 25° C. and 37° C. The NAD concentrations in serum were measured at 1, 2, and 19 hours after the start of incubation.
The NAD concentration of the sample (i.e., serum) was measured by the following procedure,
(§1) Three times the volume of 0.4 M trichloroacetic acid solution was added to the collected sample, mixed, and placed for 10 minutes under a static condition at room temperature. The mixture was then centrifuged, and the supernatant was collected as an NAD extract.
(§2) NAD in the extract was measured using a 7180 type Hitachi automatic analyzer (manufactured by Hitachi High-Tech Corporation). The measurement was performed by setting the first test solution (comprising a phosphate buffer (pH 7.0), 0.6 mM WST-8 and 1.7 U/mL glucose dehydrogenase (GLUCDH “Amano” 2 manufactured by Amano Enzyme Inc.) and the second test solution (comprising a phosphate buffer (pH 7.8), 320 mM D-glucose and 15 U/mL diaphorase (No. 46445003 manufactured by Oriental Yeast Co., Ltd.) using the measurement parameters as follows. • Analysis method . . . Rate A • Measurement wavelength (sub/main) . . . 600 nm/450 nm • Reaction duration . . . 10 minutes • Photometric points 27 to 34 • Sample solution (NAD extract solution) . . . 2 μL • R1 reagent . . . 120 μL • R2 reagent . . . 40 μL
(§3) That is, 2 AL of NAD extract and 120 μL of the first test solution were mixed and incubated at 37° C. for 4.5 min (photometric point 1 to 16), and 40 μL of the second test solution was added to start the reaction (photometric point 17). The value of an absorbance change per minute (ΔAbs/min) was calculated by subtracting an absorbance of water (blank) at the same photometric point from the absorbance value of the measured sample at 8 to 10 minutes (photometric point 27 to 34) after the start of reaction.
(§4) The NAD concentration of the sample was calculated from the calibration curve (the NAD concentration−the increase rate of absorbance (ΔAbs/min)) that was obtained beforehand by measuring multiple NAD solutions at predetermined concentrations.
FIG. 1 is a graph illustrating a time-course change of relative values (%) of the NAD concentration in serum under each incubation condition when the concentration at the time of NAD addition (0 hour) is set as 100%. When stored at 25° C. and 37° C., the NAD concentrations reached almost 0% within two hours.

[3] = Stabilizing study of NAD in blood using nicotinamide and NR; details: rat whole blood, overnight at 25° C.
Procedure: as §1, §2, §3, §4
Whole blood was collected from SD retired rats using EDTA-filled blood collection tubes, PBS (pH 6.0) comprising nicotinamide and NR at 10 times the concentration shown in Table 2 was prepared as a 10× stabilizer for each. 450 μL of whole blood was transferred to a 1.5-mL centrifuge tube, and 50 μL of a 10× stabilizer for each was added and mixed. NAD was added to each tube to make 100 µM and used as a measurement sample.
The NAD extraction and the NAD measurement were performed on each measurement sample after being placed overnight under a static condition at 25° C., in the same manner according to Example 1. The relative value (%) of NAD concentration of each measured sample was calculated, wherein the concentration at the time of NAD addition (0 hour) was set as 100%. […] It was confirmed that the amount of remaining NAD became higher as the amount of nicotinamide and NR increased.

[4] = Stabilizing study of NAD in blood using nicotinamide and NMN; details: rat whole blood, overnight at 25° C.
Procedure: as §1, §2, §3, §4
Whole blood was collected from SD retired rats using EDTA-filled blood collection tubes. PBS (pH 6.0) comprising nicotinamide and NMN at 10 times the concentration shown in Table 1 was prepared as a 10× stabilizer for each. 450 μL of whole blood was transferred to a 1.5-mL centrifuge tube, and 50 μL of a 10× stabilizer for each was added and mixed. NAD was added to each tube to make 100 µM and used as a measurement sample.
The NAD extraction and the NAD measurement were performed on each measurement sample after being placed overnight under a static condition at 25° C., in the same manner according to Example 1. The relative value (%) of NAD concentration of each measured sample was calculated, wherein the concentration at the time of NAD addition (0 hour) was set as 100%. […] It was confirmed that the amount of remaining NAD became higher as the amount of nicotinamide and NMN increased.

[5] = Stabilizing study of NAD in blood using NMN and NR; details: rat whole blood, overnight at 25° C.
Procedure: Whole blood was collected from SD retired rats using EDTA-filled blood collection tubes. PBS (pH 6.0) comprising NMN and NR at 10 times the concentration shown in Table 3 was prepared as a 10× stabilizer for each. 450 μL of whole blood was transferred to a 1.5-mL centrifuge tube, and 50 μL of 10× stabilizer for each was added and mixed. NAD was added to each tube to make 100 µM and used as a measurement sample.
The NAD extraction and the NAD measurement were performed on each measurement sample after being placed overnight under a static condition overnight at 25° C., in the same manner according to Example 1. The relative value (%) of NAD concentration of each measured sample was calculated, wherein the concentration at the time of NAD addition (0 hour) was set as 100%.

In the case of `NC(=O)c1ccc[n+]([C@@H]2O[C@H](COP(=O)([O-])OP(=O)(O)OC[C@H]3O[C@@H](n4cnc5c(N)ncnc54)[C@H](O)[C@@H]3O)[C@@H](O)[C@H]2O)c1` [NAD, nicotinamide adenine dinucleotide], the “time for which a blood sample for NAD measurement is stable” value [1] is given as 5 h, the “relative value (%) of NAD concentration in serum (0 hour = 100%)” value (“relative value … in serum (0 hour = 100%)” below) ([2]; stored at 25° C., within two hours) is given as ~0% and the “relative value … in serum (0 hour = 100%)” value ([2]; stored at 37° C., within two hours) is given as ~0%. For the same compound, the “relative value … in serum (0 hour = 100%)” value ([2]; stored at refrigeration, within 20 hours) was ~0% and the “NAD concentration in serum relative to 0 hour” value ([2]; stored at refrigeration, within two hours) was “reduced by about half”.

For `NC(=O)c1cccnc1` [Nicotinamide, nicotinamide], the “relative value (%) of NAD concentration (0 hour = 100%)” value ([3]; 50 mM nicotinamide, 0 mM NR) was 7.8%, the “relative value (%) of NAD concentration (0 hour = 100%)” value ([3]; 100 mM nicotinamide, 0 mM NR) was 8.7% and the “relative value (%) of NAD concentration (0 hour = 100%)” value ([3]; 200 mM nicotinamide, 0 mM NR) was 10.8%. The “relative value (%) of NAD concentration (0 hour = 100%)” value ([4]; 50 mM nicotinamide, 0 mM NMN) was 7.4%, the “relative value (%) of NAD concentration (0 hour = 100%)” value ([4]; 100 mM nicotinamide, 0 mM NMN) was 6.6% and the “relative value (%) of NAD concentration (0 hour = 100%)” value ([4]; 200 mM nicotinamide, 0 mM NMN) was 13.7%.

For `NC(=O)c1ccc[n+]([C@@H]2O[C@H](CO)[C@@H](O)[C@H]2O)c1` [NR, nicotinamide riboside], the “relative value (%) of NAD concentration (0 hour = 100%)” value ([3]; 0 mM nicotinamide, 3 mM NR) was 7.5%, the “relative value (%) of NAD concentration (0 hour = 100%)” value ([3]; 0 mM nicotinamide, 10 mM NR) was 49.7% and the “relative value (%) of NAD concentration (0 hour = 100%)” value ([3]; 0 mM nicotinamide, 20 mM NR) was 64.8%. For the same compound, the “relative value (%) of NAD concentration (0 hour = 100%)” value ([5]; 20 mM NR, 0 mM NMN) was 62.9%, the “relative value (%) of NAD concentration (0 hour = 100%)” value ([5]; 50 mM NR, 0 mM NMN) was 71.2% and the “relative value (%) of NAD concentration (0 hour = 100%)” value ([5]; 100 mM NR, 0 mM NMN) was 77.7%.

For nicotinamide mononucleotide [NMN], the “relative value (%) of NAD concentration (0 hour = 100%)” value ([4]; 0 mM nicotinamide, 3 mM NMN) was 8.2%, the “relative value (%) of NAD concentration (0 hour = 100%)” value ([4]; 0 mM nicotinamide, 10 mM NMN) was 16.1% and the “relative value (%) of NAD concentration (0 hour = 100%)” value ([4]; 0 mM nicotinamide, 20 mM NMN) was 33.0%. The “relative value (%) of NAD concentration (0 hour = 100%)” value ([5]; 0 mM NR, 20 mM NMN) was 29.1%, the “relative value (%) of NAD concentration (0 hour = 100%)” value ([5]; 0 mM NR, 50 mM NMN) was 58.0% and the “relative value (%) of NAD concentration (0 hour = 100%)” value ([5]; 0 mM NR, 100 mM NMN) was 89.6%.
